# Data as given in patent publication US10428044B2, “3-amino-1,5,6,7-tetrahydro-4H-indol-4-ones” (Bayer Pharma Aktiengesellschaft, priority 2014, dated 2019).
# Target: (recombinant) catalytic domain of human Bub1 (amino acids 704-1085) (Homo sapiens (Human), UniProt O43683)
# Assay: Bub1 kinase assay (TR-FRET)
# Format: biochemical
# Conditions: ATP 10 μM final, peptide substrate 1 μM final, 60 min at 22° C., read-out: Biological Assay: Bub1 kinase assay median IC50
# Procedure, shortened: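 Compounds were serially diluted 1:3.4 from 2 mM DMSO stocks and incubated with the enzyme reaction for 60 min at 22° C. The reaction was stopped with EDTA, and biotinylated peptide phosphorylation was read by TR-FRET using Eu anti-mouse IgG, anti-phosphoserine antibody and streptavidin-XL665. IC50 was fitted by 4-parameter logistic to inhibition normalized to no-inhibitor and no-enzyme controls.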
# (recombinant) catalytic domain of human Bub1 (amino acids 704-1085), sequence (O43683 704-1085): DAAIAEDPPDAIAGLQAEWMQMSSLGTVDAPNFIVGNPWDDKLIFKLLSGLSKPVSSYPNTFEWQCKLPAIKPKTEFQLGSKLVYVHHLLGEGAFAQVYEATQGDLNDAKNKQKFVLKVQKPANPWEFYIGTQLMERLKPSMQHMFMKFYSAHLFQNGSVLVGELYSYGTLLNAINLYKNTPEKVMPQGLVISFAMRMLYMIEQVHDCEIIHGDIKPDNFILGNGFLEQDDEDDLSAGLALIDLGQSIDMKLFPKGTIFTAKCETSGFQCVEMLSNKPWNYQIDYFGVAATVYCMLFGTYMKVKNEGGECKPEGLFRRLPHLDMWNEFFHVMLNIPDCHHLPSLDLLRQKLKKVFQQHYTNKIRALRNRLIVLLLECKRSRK
row,SMILES,IC50 [nM]
1,"CN(CCC(=O)Nc1cc(-c2[nH]c3c(c2Nc2ccccc2)C(=O)CCC3)ccn1)C(=O)OC(C)(C)C [Example 299, tert-butyl methyl[3-oxo-3-({4-[4-oxo-3-(phenylamino)-4,5,6,7-tetrahydro-1H-indol-2-yl]pyridin-2-yl}amino)propyl]carbamate]",74.3
2,"CNCCC(=O)Nc1cc(-c2[nH]c3c(c2Nc2ccccc2)C(=O)CCC3)ccn1 [Example 300, N^2-methyl-N-{4-[4-oxo-3-(phenylamino)-4,5,6,7-tetrahydro-1H-indol-2-yl]pyridin-2-yl}-beta-alaninamide]",475
3,"C[C@H](C(=O)Nc1cc(-c2[nH]c3c(c2Nc2ccccc2)C(=O)CCC3)ccn1)N(C)C(=O)OC(C)(C)C [Example 301, tert-butyl methyl[(2R)-1-oxo-1-({4-[4-oxo-3-(phenylamino)-4,5,6,7-tetrahydro-1H-indol-2-yl]pyridin-2-yl}amino)propan-2-yl]carbamate]",738
4,"CN[C@H](C)C(=O)Nc1cc(-c2[nH]c3c(c2Nc2ccccc2)C(=O)CCC3)ccn1 [Example 302, N^2-methyl-N-{4-[4-oxo-3-(phenylamino)-4,5,6,7-tetrahydro-1H-indol-2-yl]pyridin-2-yl}-D-alaninamide]",480
5,"C[C@@H](C(=O)Nc1cc(-c2[nH]c3c(c2Nc2ccccc2)C(=O)CCC3)ccn1)N(C)C(=O)OC(C)(C)C [Example 303, tert-butyl methyl[(2S)-1-oxo-1-({4-[4-oxo-3-(phenylamino)-4,5,6,7-tetrahydro-1H-indol-2-yl]pyridin-2-yl}amino)propan-2-yl]carbamate]",1410
6,"CN[C@@H](C)C(=O)Nc1cc(-c2[nH]c3c(c2Nc2ccccc2)C(=O)CCC3)ccn1 [Example 304, N^2-methyl-N-{4-[4-oxo-3-(phenylamino)-4,5,6,7-tetrahydro-1H-indol-2-yl]pyridin-2-yl}-L-alaninamide]",174
7,"CNC(C)(C)C(=O)Nc1cc(-c2[nH]c3c(c2Nc2ccccc2)C(=O)CCC3)ccn1 [Example 306, N^2,2-dimethyl-N-{4-[4-oxo-3-(phenylamino)-4,5,6,7-tetrahydro-1H-indol-2-yl]pyridin-2-yl}alaninamide]",3990
8,"CN(C)CC(=O)Nc1cc(-c2[nH]c3c(c2Nc2ccccc2)C(=O)CCC3)ccn1 [Example 307, N^2,N^2;-dimethyl-N-{4-[4-oxo-3-(phenylamino)-4,5,6,7-tetrahydro-1H-indol-2-yl]pyridin-2-yl}glycinamide]",208
9,"O=C(CN1CCCC1)Nc1cc(-c2[nH]c3c(c2Nc2ccccc2)C(=O)CCC3)ccn1 [Example 308, N-{4-[4-oxo-3-(phenylamino)-4,5,6,7-tetrahydro-1H-indol-2-yl]pyridin-2-yl}-2-(pyrrolidin-1-yl)acetamide]",234
10,"CN1CCCC1C(=O)Nc1cc(-c2[nH]c3c(c2Nc2ccccc2)C(=O)CCC3)ccn1 (stereo not shown) [Example 309, 1-methyl-N-{4-[4-oxo-3-(phenylamino)-4,5,6,7-tetrahydro-1H-indol-2-yl]pyridin-2-yl}-prolinamide]",238
11,"CN1C(=O)CCC1C(=O)Nc1cc(-c2[nH]c3c(c2Nc2ccccc2)C(=O)CCC3)ccn1 (stereo not shown) [Example 310, 1-methyl-5-oxo-N-{4-[4-oxo-3-(phenylamino)-4,5,6,7-tetrahydro-1H-indol-2-yl]pyridin-2-yl}-prolinamide]",127
12,"O=C1CCC(C(=O)Nc2cc(-c3[nH]c4c(c3Nc3ccccc3)C(=O)CCC4)ccn2)N1 (stereo not shown) [Example 311, 5-oxo-N-{4-[4-oxo-3-(phenylamino)-4,5,6,7-tetrahydro-1H-indol-2-yl]pyridin-2-yl}-prolinamide]",40.6
13,"COC(=O)Nc1cc(-c2[nH]c3c(c2Nc2cccc(F)c2)C(=O)CCC3)ccn1 [Example 312, methyl (4-{3-[(3-fluorophenyl)amino]-4-oxo-4,5,6,7-tetrahydro-1H-indol-2-yl}pyridin-2-yl)carbamate]",19.9
14,"O=C1CCCc2[nH]c(-c3ccnc(NC(=O)C4CC4)c3)c(Nc3ccc(F)cc3)c21 [Example 314, N-(4-{3-[(4-fluorophenyl)amino]-4-oxo-4,5,6,7-tetrahydro-1H-indol-2-yl}pyridin-2-yl)cyclopropanecarboxamide]",47.5
15,"CC(=O)Nc1cc(-c2[nH]c3c(c2Nc2ccc(F)c(F)c2)C(=O)CCC3)ccn1 [Example 315, N-(4-{3-[(3,4-difluorophenyl)amino]-4-oxo-4,5,6,7-tetrahydro-1H-indol-2-yl}pyridin-2-yl)acetamide]",101
16,"O=C1CCCc2[nH]c(-c3ccnc(NC(=O)C4CC4)c3)c(Nc3ccc(F)c(F)c3)c21 [Example 316, N-(4-{3-[(3,4-difluorophenyl)amino]-4-oxo-4,5,6,7-tetrahydro-1H-indol-2-yl}pyridin-2-yl)cyclopropanecarboxamide]",82.3
17,"CC(=O)Nc1cc(-c2[nH]c3c(c2Nc2ccccc2)C(=O)CC(C(C)C)C3)ccn1 (stereo not shown) [Example 317, N-{4-[4-oxo-3-(phenylamino)-6-(propan-2-yl)-4,5,6,7-tetrahydro-1H-indol-2-yl]pyridin-2-yl}acetamide]",10.9

row,SMILES,IC50 [nM]
1,"CC(C)C1CC(=O)c2c([nH]c(-c3ccnc(NC(=O)C4CC4)c3)c2Nc2ccccc2)C1 (stereo not shown) [Example 318, N-{4-[4-oxo-3-(phenylamino)-6-(propan-2-yl)-4,5,6,7-tetrahydro-1H-indol-2-yl]pyridin-2-yl}cyclopropanecarboxamide]",9.71
2,"CC(=O)Nc1cc(-c2[nH]c3c(c2Nc2cccc(F)c2)C(=O)CC(C(C)C)C3)ccn1 (stereo not shown) [Example 319, N-{4-[3-[(3-fluorophenyl)amino]-4-oxo-6-(propan-2-yl)-4,5,6,7-tetrahydro-1H-indol-2-yl]pyridin-2-yl}acetamide]",8.69
3,"CC(C)C1CC(=O)c2c([nH]c(-c3ccnc(NC(=O)C4CC4)c3)c2Nc2cccc(F)c2)C1 (stereo not shown) [Example 320, N-{4-[3-[(3-fluorophenyl)amino]-4-oxo-6-(propan-2-yl)-4,5,6,7-tetrahydro-1H-indol-2-yl]pyridin-2-yl}cyclopropanecarboxamide]",8.04
4,"CC(=O)Nc1cc(-c2[nH]c3c(c2Nc2ccc(F)cc2)C(=O)CC(C(C)C)C3)ccn1 (stereo not shown) [Example 321, N-{4-[3-[(4-fluorophenyl)amino]-4-oxo-6-(propan-2-yl)-4,5,6,7-tetrahydro-1H-indol-2-yl]pyridin-2-yl}acetamide]",11.2
5,"CC(C)C1CC(=O)c2c([nH]c(-c3ccnc(NC(=O)C4CC4)c3)c2Nc2ccc(F)cc2)C1 (stereo not shown) [Example 322, N-{4-[3-[(4-fluorophenyl)amino]-4-oxo-6-(propan-2-yl)-4,5,6,7-tetrahydro-1H-indol-2-yl]pyridin-2-yl}cyclopropanecarboxamide]",12.7
6,"CC(=O)Nc1cc(-c2[nH]c3c(c2Nc2ccc(F)c(F)c2)C(=O)CC(C(C)C)C3)ccn1 (stereo not shown) [Example 323, N-{4-[3-[(3,4-difluorophenyl)amino]-4-oxo-6-(propan-2-yl)-4,5,6,7-tetrahydro-1H-indol-2-yl]pyridin-2-yl}acetamide]",21.6
7,"CC(C)C1CC(=O)c2c([nH]c(-c3ccnc(NC(=O)C4CC4)c3)c2Nc2ccc(F)c(F)c2)C1 (stereo not shown) [Example 324, N-{4-[3-[(3,4-difluorophenyl)amino]-4-oxo-6-(propan-2-yl)-4,5,6,7-tetrahydro-1H-indol-2-yl]pyridin-2-yl}cyclopropanecarboxamide]",26.4
8,"COCC(=O)Nc1cc(-c2[nH]c3c(c2Nc2ccccc2)C(=O)CCC3)ccn1 [Example 325, 2-methoxy-N-{4-[4-oxo-3-(phenylamino)-4,5,6,7-tetrahydro-1H-indol-2-yl]pyridin-2-yl}acetamide]",19.8
9,"COC(C)(C)C(=O)Nc1cc(-c2[nH]c3c(c2Nc2ccccc2)C(=O)CCC3)ccn1 [Example 326, 2-methoxy-2-methyl-N-{4-[4-oxo-3-(phenylamino)-4,5,6,7-tetrahydro-1H-indol-2-yl]pyridin-2-yl}propanamide]",608
10,"CC(C)(O)C(=O)Nc1cc(-c2[nH]c3c(c2Nc2ccccc2)C(=O)CCC3)ccn1 [Example 327, 2-hydroxy-2-methyl-N-{4-[4-oxo-3-(phenylamino)-4,5,6,7-tetrahydro-1H-indol-2-yl]pyridin-2-yl}propanamide]",280
11,CCOC(C)(C)C(=O)Nc1cc(-c2[nH]c3c(c2Nc2ccccc2)C(=O)CCC3)ccn1 [Example 328],524
12,COC(C)C(=O)Nc1cc(-c2[nH]c3c(c2Nc2ccccc2)C(=O)CCC3)ccn1 (stereo not shown) [Example 329],65.4
13,"CCCOCC(=O)Nc1cc(-c2[nH]c3c(c2Nc2ccccc2)C(=O)CCC3)ccn1 [Example 330, N-{4-[4-oxo-3-(phenylamino)-4,5,6,7-tetrahydro-1H-indol-2-yl]pyridin-2-yl}-2-propoxyacetamide]",7.83
14,"CC(C)COCC(=O)Nc1cc(-c2[nH]c3c(c2Nc2ccccc2)C(=O)CCC3)ccn1 [Example 331, 2-(2-methylpropoxy)-N-{4-[4-oxo-3-(phenylamino)-4,5,6,7-tetrahydro-1H-indol-2-yl]pyridin-2-yl}acetamide]",13
15,"CCCCOCC(=O)Nc1cc(-c2[nH]c3c(c2Nc2ccccc2)C(=O)CCC3)ccn1 [Example 333, 2-butoxy-N-{4-[4-oxo-3-(phenylamino)-4,5,6,7-tetrahydro-1H-indol-2-yl]pyridin-2-yl}acetamide]",7.33
16,"CCOCC(=O)Nc1cc(-c2[nH]c3c(c2Nc2ccccc2)C(=O)CCC3)ccn1 [Example 334, 2-ethoxy-N-{4-[4-oxo-3-(phenylamino)-4,5,6,7-tetrahydro-1H-indol-2-yl]pyridin-2-yl}acetamide]",9.36
17,"C=CCOCC(=O)Nc1cc(-c2[nH]c3c(c2Nc2ccccc2)C(=O)CCC3)ccn1 [Example 335, N-{4-[4-oxo-3-(phenylamino)-4,5,6,7-tetrahydro-1H-indol-2-yl]pyridin-2-yl}-2-(prop-2-en-1-yloxy)acetamide]",9.9
